Where “and” joins values, the source holds several entries; their conditions need not be identical. Equal values may be shown once.
Experiments:
[1] = tested on: Ba/F3 mouse pro-B cell line; parameters: method as in PMID 38484051; conditions: cited from earlier work
EGFP-SD [2] = assay: Degradation of stably expressed EGFP-SD in human cell lines (hESCs, HEK293, Jurkat); format: cell-based; conditions: for bottom vs top, EGFP-SD: IBR up to 1 μM
EGFP-SD [3] = assay: Degradation of stably expressed EGFP-SD in rat ESCs
[4] = tested on: CD8+ and CD4+ T cells infiltrating the MC-38 microenvironment; assay: Markers on T cells from MC-38 tumor microenvironment, flow cytometry day 9; format: in vivo, mouse
Experimental: Data are represented as mean ± standard error (SEM). The same experiment was repeated twice to confirm reproducibility. p-values were determined by two-way ANOVA multiple comparisons. ∗∗∗∗p < 0.0001 and ∗p = 0.0267. […] Data are represented as mean ± SEM. The same experiment was repeated twice to confirm reproducibility. p-values were determined by two-way ANOVA multiple comparisons. ∗∗∗∗p < 0.0001, ∗∗∗p = 0.0005, ∗∗p = 0.0067. […] Ratio of PD-1 positive cells and mean fluorescence intensity (MFI) of PD-1 (D), TIM-3 (E), and LAG-3 (F) on CD8^+ and CD4^+ T cells isolated from tumor microenvironments 9 days after the initiation of treatment are shown. Fluorescence intensity of each molecule was measured by flow cytometry, and the geometric MIFs of marker-positive cells were calculated. The data in two experiments were compiled. p-values were determined by the Brown-Forsythe and Welch ANOVA test. Different letters indicate statistically significant differences between groups (p < 0.05). Boxplots: hinges, 25th and 75th percentiles; middle line, median; whiskers, minimum to maximum value.
Next, the effects of SD-induced PD-1 reduction were compared with those of anti-PD-1 antibody treatment in vivo. […] CD3^+ T cells infiltrating the MC-38 microenvironment were analyzed on day 9 of treatment before the MC-38 tumor masses had shrunk with treatment and no longer provided sufficient T cells for FACS analyses.
Subsequently, we analyzed the proportion of exhaustion and activation marker-positive cells in each experimental group, as well as the expression levels of each marker in the marker-positive cells.
P-values were determined by one-way ANOVA with Tukey’s multiple comparisons. IBR: IBR-treated.
Samples are the same as Figure 7D. CrbnI391V/I391V mice were used for the experiments. Only PD-1 genotypes were shown in D. Pdcd1+/+/CrbnI391V/I391V control Ab: n = 11, Pdcd1+/+/CrbnI391V/I391V […]
E Expression analyses of PD-1, TIM-3, LAG-3, TIGIT and CX3CR1 on T cells by flow cytometry.
Cells in microenvironments were sorted by indicated gates. Dotted lines indicate isotype control. […]
PD-1 treatment. […] Different letters indicate statistically significant differences between groups (p < 0.05). Box plots: hinges, 25th and 75th percentiles; middle line, median; whiskers, minimum to maximum value.

wild-type mESCs = assay: Proteome assay in wild-type mESCs with IBR; format: cell-based, mouse
Source text: Only SD was able to efficiently degrade EGFP even in the wild-type mouse cell lines. IKZF1/3 and several neo-substrates for CRBN were degraded in human cells but not in mouse cells, most likely because of the different amino acids in CRBN. However, the combination of SD and IBR or MZG degraded target proteins in both mouse and human cells. […] These 17 proteins are suspected to be novel substrates (data not shown). […] Moreover, general thalidomide analogs and CRBN have no neo-substrates in mouse cell lines.[25]

SD-EGFP = SD-EGFP (Mus musculus, UniProt P42212+Q8C7D2, F64L/H231L/INS1V/S65T, form not given); format: cell-based
[5] = parameters: method as in PMID 32969202; conditions: humans, cited from earlier work

## Nc1cccc2c1C(=O)N(C1CCC(=O)NC1=O)C2=O (centres unmarked) [POM, pomalidomide]
[1]
  proteins reduced: very few proteins

## O=C1CC[C@H](N2Cc3c(OCc4ccc(CN5CCOCC5)cc4)cccc3C2=O)C(=O)N1 [IBR, iberdomide]
EGFP-SD [2]; HEK293, stable
  Bottom, EGFP-SD: 0.01028
  DC50: 5.45 pM
  bottom vs top, EGFP-SD: 0.009
EGFP-SD [2]; Jurkat, stable
  Bottom, EGFP-SD: 0.02414
  DC50: 11.8 pM
  bottom vs top, EGFP-SD: 0.024
EGFP-SD [2]; human ESCs, stable
  Bottom, EGFP-SD: 0.007522
  DC50: 2.78 pM
  bottom vs top, EGFP-SD: 0.005
EGFP-SD [3]; read-out: DC50, EGFP-SD, stable
  DC50: 140 pM
EGFP-SD [3]; stable
  Bottom, EGFP-SD: 0.0497
EGFP-SD [3]; stable, IBR up to 1 μM
  bottom vs top, EGFP-SD: 0.083
[4]; IBR: Pdcd1SD/SD/CrbnI391V/I391V, cell ratio and expression level, antibody: Pdcd1+/+/CrbnI391V/I391V, expression level
  TIM-3 in CD8+ T cells vs untreated: decreased
[4]; IBR: Pdcd1SD/SD/CrbnI391V/I391V, antibody: Pdcd1+/+/CrbnI391V/I391V, CX3CR1+ cell ratio
  CX3CR1 in CD8+ T cells vs untreated: comparable between IBR-treated and untreated groups
[4]; IBR: Pdcd1SD/SD/CrbnI391V/I391V, antibody: Pdcd1+/+/CrbnI391V/I391V, expression level
  LAG-3 and TIGIT in CD8+ T cells vs untreated: remained comparable
[4]; Pdcd1SD/SD/CrbnI391V/I391V
  LAG-3 expression levels in CD4+ T cells: higher than those in the untreated group
[4]; Pdcd1SD/SD/CrbnI391V/I391V, day 9
  PD-1 expression level in PD-1+ CD8+ T cells vs untreated: significant reduction
[4]; day 9 of treatment
  frequency / number of T cells infiltrating the MC-38 microenvironment: did not differ
wild-type mESCs; exogenously expressed in mESCs
  downregulation of 11 EGFP-bound candidate proteins: none of them were downregulated by IBR
wild-type mESCs; wild-type mESCs, proteome assay, data not shown
  number of proteins with reduced expression: 17
SD-EGFP
  bottom vs top, SD-EGFP: 0.186 and 0.153 and 0.146 and 0.15 and 0.19
  level to which SD-EGFP was suppressed: 20%
[5]; multiple doses
  IBR present after 24 h, of the maximum concentration: about 20%
[5]; oral, single and multiple once-daily doses
  time of serum concentration peak: 3 h
[5]
  serum concentration with multiple doses compared to a single dose: doubles
